{"source": "patent US20250129023A1", "about": "“[…]” (Reunion Neuroscience, Inc., priority 2020, published 2025)", "key": {"[1]": {"assay": "Pharmacokinetics and subjective effects in human volunteers", "format": "in vivo", "details": "standardized questionnaires", "description": "The compound from example 6 (N,N diisopropyltryptamine-4-glutarate) is administered to human volunteers by subcutaneous injection of a sterile solution (1 mg/ml) at a dosage of 0.1-0.6 mg/kg. Blood samples are taken at 5, 15, 30, 45, 60, 120, 240 and 480 min and 24 h. Samples are analyzed by LCMS for drug and prodrug. Subjective effects are measured using standardized questionnaires.\nThe compound from example 2 (4-hemisuccinate of 4-OH-DiPT) is administered to human volunteers by oral ingestion of a tablet containing 50 mg of the prodrug. Blood samples are taken at 5, 15, 30, 45, 60, 120, 240 and 480 min and 24 h. Samples are analyzed by LCMS for drug and prodrug. Subjective effects are measured using standardized questionnaires."}, "[2]": {"test_system": "human patient suffering depression", "assay": "Use in treatment of a human patient suffering depression", "format": "in vivo", "details": "i.m. or s.c. injection (ca. 25 mg) or oral (ca. 50-200 mg)", "description": "The compound of example 6 (N,N diisopropyltryptamine-4-glutarate) is administered by i.m. or s.c. injection (ca. 25 mg; 0.4-0.5 mg/kg) to a human patient suffering depression, or by oral administration (ca. 50-200 mg; 0.8-3.2 mg/kg) with tablets. In another example of use, the compound of example 6 (4-hemiglutarate of 4-OH-DiPT) is similarly administered. Prior to the dosing session, the patient is qualified for the experience by measurement of depression scores, screened for exclusions (e.g. history of psychoses, unfavorable heart condition, pregnancy) and finally, the patient is encouraged to formulate an intent for the dosing session. Dosing is performed in a quiet clinic setting with the patient resting comfortably in an inclined, but unrestrained, position to avoid falls. The patients' eyes are covered, and music is applied. The drug is administered. After 4 h, the patient reports no longer feeling the effects of the drug and is asked to sit up while under supervision. Feeling normal, the patient is allowed to stand (supervised) and feeling in control, is allowed to move around. One hour later, the patient is discharged. Later by 24 h, the patient returns to the clinic to meet with a psychotherapist to recount the session. The patient records a depression score via questionnaire and is again discharged. […]"}, "[3]": {"assay": "Solubility in water", "format": "physicochemical", "details": "HCl salt solid", "description": "The structure was confirmed by NMR. Purity was determined by HPLC (>97%). The solid was resuspended in […] HCl-dioxane to form the HCl salt which was filtered, washed with ether and dried. Yield (>95%, purity >95%; DSC endotherm 174C). The solid could be dissolved in water up to 50 mg/ml and lyophilized to form a white “cake”."}, "[4]": {"assay": "Prodrug hydrolysis in rat plasma at 37° C", "format": "in vitro ADME", "details": "1.0 ug/mL", "description": "(§1) Pooled mixed gender human plasma (2 ml), mouse plasma, rat plasma and dog plasma were equilibrated at 37° C. The compound of example 9 was added so as to achieve a concentration of 1.0 ug/mL. Aliquots (50 uL) of the mixture were withdrawn at timed intervals (0, 0.004, 0.5, 1, 2 and 4 hours) and quenched with 200 uL of methanol/acetonitrile (1:1). The samples were vortexed and stored at −80° C. until analysis. Assays were done in triplicate. Control samples were done in phosphate buffered saline (PBS, pH 7.4) and simulated gastric fluid (SGF, pH 2). Analysis of samples as performed by HPLC-MS to determine the amounts of prodrug and drug in each sample tested. Table 1 provides the mean concentrations of prodrug remaining at different time points of the experiment."}, "[5]": {"assay": "Control hydrolysis in phosphate buffered saline (PBS)", "format": "physicochemical", "details": "PBS (pH 7)", "description": "as §1"}, "[6]": {"assay": "Prodrug hydrolysis in pooled mixed gender human plasma at 37° C", "format": "in vitro ADME", "details": "1.0 ug/mL", "description": "as §1"}, "[7]": {"assay": "Control hydrolysis in simulated gastric fluid (SGF, pH 2)", "format": "physicochemical", "description": "as §1"}, "[8]": {"assay": "Prodrug hydrolysis in dog plasma at 37° C", "format": "in vitro ADME", "details": "1.0 ug/mL", "description": "as §1"}, "[9]": {"assay": "Prodrug hydrolysis in mouse plasma at 37° C", "format": "in vitro ADME", "details": "1.0 ug/mL", "description": "as §1"}, "[10]": {"assay": "Pharmacokinetics in rats (i.v. and s.c. injection, LCMS of drug and prodrug)", "format": "in vivo", "details": "rodent, 1.4-2 mg/kg", "description": "The compound from example 9 was administered to rats by injection (intravenous and subcutaneous) with a sterile solution (2 mg/ml) at a rate of 1.4-2 mg/kg. Blood samples were taken at 15, 30, 45, 60, 120, 240 min and 360 min and analyzed by LCMS for drug and prodrug. PK profile for the prodrug and active species were obtained and relative bioavailability was determined for each of the routes of administration.\nPharmacokinetics of 1.34 mg/ml 4-HO-DiPT HCl administered by intravenous or subcutaneous injection were performed in parallel under identical conditions as above. […] Immediately obvious is the increased variability with the active species when administered s.c. and intravenous administrations."}, "[11]": {"test_system": "rats", "assay": "Head Twitch Response (HTR) / Wet Dog Shakes by visual observation", "format": "in vivo", "details": "after injection of the compound from example 9, highest intensity at the Tmax of the PK profile", "description": "In some cases, Head Twitch Response (HTR) or Wet Dog Shakes (WDS) were recorded by visual observation and counting of the relevant muscle twitches."}}, "note": "Where a name gives a salt, the structure may show the parent alone.", "data": [{"smiles": "CC(C)N(CCc1c[nH]c2cccc(OC(=O)CCC(=O)O)c12)C(C)C", "note": "[Example 2, 4-hemisuccinate of 4-hydroxy-diisopropyltryptamine (4-OH-DiPT)]", "values": [{"measurement": "Subjective effects (intensity of psychoactivity)", "setting": "[1]; oral tablet 50 mg", "value": "correlates with blood levels"}]}, {"smiles": "CC(C)N(CCc1c[nH]c2cccc(OC(=O)CCCC(=O)O)c12)C(C)C", "note": "[Example 6, N,N diisopropyltryptamine-4-glutarate]", "values": [{"measurement": "Time after which the patient reports no longer feeling the effects of the drug", "setting": "[2]", "value": 4, "unit": "h"}, {"measurement": "Solubility in water", "setting": "[3]", "value": "up to 50 mg/ml"}, {"measurement": "Subjective effects (intensity of psychoactivity)", "setting": "[1]; subcutaneous injection, 0.1-0.6 mg/kg", "value": "correlates with blood levels"}]}, {"smiles": "CC(C)N(CCc1c[nH]c2cccc(OC(=O)CCCC(=O)O)c12)C(C)C", "note": "[Example 9, HCl salt of N,N diisopropyltryptamine-4-glutarate]", "values": [{"measurement": "Percentage of remaining prodrug", "setting": "[4]; time 0 h", "value": 100, "unit": "%"}, {"measurement": "Percentage of remaining prodrug", "setting": "[4]; time 0.004 h", "value": 0, "unit": "%"}, {"measurement": "Percentage of remaining prodrug", "setting": "[4]; time 0.5 h", "value": 0, "unit": "%"}, {"measurement": "Percentage of remaining prodrug", "setting": "[4]; time 1 h", "value": 0, "unit": "%"}, {"measurement": "Percentage of remaining prodrug", "setting": "[4]; time 2 h", "value": 0, "unit": "%"}, {"measurement": "Percentage of remaining prodrug", "setting": "[4]; time 4 h", "value": 0, "unit": "%"}, {"measurement": "Percentage of remaining prodrug", "setting": "[5]; time 0 h", "value": 100, "unit": "%"}, {"measurement": "Percentage of remaining prodrug", "setting": "[5]; time 4 h", "value": 93, "unit": "%"}, {"measurement": "Percentage of remaining prodrug", "setting": "[6]; time 0 h", "value": 100, "unit": "%"}, {"measurement": "Percentage of remaining prodrug", "setting": "[6]; time 0.004 h", "value": 100, "unit": "%"}, {"measurement": "Percentage of remaining prodrug", "setting": "[6]; time 0.5 h", "value": 3.0, "unit": "%"}, {"measurement": "Percentage of remaining prodrug", "setting": "[6]; time 1 h", "value": 0.23, "unit": "%"}, {"measurement": "Percentage of remaining prodrug", "setting": "[6]; time 2 h", "value": 0, "unit": "%"}, {"measurement": "Percentage of remaining prodrug", "setting": "[6]; time 4 h", "value": 0, "unit": "%"}, {"measurement": "Percentage of remaining prodrug", "setting": "[7]; time 0 h", "value": 100, "unit": "%"}, {"measurement": "Percentage of remaining prodrug", "setting": "[7]; time 0.004 h", "value": 100, "unit": "%"}, {"measurement": "Percentage of remaining prodrug", "setting": "[7]; time 0.5 h", "value": 100, "unit": "%"}, {"measurement": "Percentage of remaining prodrug", "setting": "[7]; time 1 h", "value": 100, "unit": "%"}, {"measurement": "Percentage of remaining prodrug", "setting": "[7]; time 4 h", "value": 101, "unit": "%"}, {"measurement": "Percentage of remaining prodrug", "setting": "[8]; time 0 h", "value": 100, "unit": "%"}, {"measurement": "Percentage of remaining prodrug", "setting": "[8]; time 0.004 h", "value": 100, "unit": "%"}, {"measurement": "Percentage of remaining prodrug", "setting": "[8]; time 0.5 h", "value": 87, "unit": "%"}, {"measurement": "Percentage of remaining prodrug", "setting": "[8]; time 1 h", "value": 79, "unit": "%"}, {"measurement": "Percentage of remaining prodrug", "setting": "[8]; time 2 h", "value": 64, "unit": "%"}, {"measurement": "Percentage of remaining prodrug", "setting": "[8]; time 4 h", "value": 39, "unit": "%"}, {"measurement": "Percentage of remaining prodrug", "setting": "[9]; time 0 h", "value": 100, "unit": "%"}, {"measurement": "Percentage of remaining prodrug", "setting": "[9]; time 0.004 h", "value": 0, "unit": "%"}, {"measurement": "Percentage of remaining prodrug", "setting": "[9]; time 0.5 h", "value": 0, "unit": "%"}, {"measurement": "Percentage of remaining prodrug", "setting": "[9]; time 1 h", "value": 0, "unit": "%"}, {"measurement": "Percentage of remaining prodrug", "setting": "[9]; time 2 h", "value": 0, "unit": "%"}, {"measurement": "Percentage of remaining prodrug", "setting": "[9]; time 4 h", "value": 0, "unit": "%"}, {"measurement": "Prodrug in blood samples after injection", "setting": "[10]", "value": "prodrug was not observed"}]}, {"smiles": "CC(C)N(CCc1c[nH]c2cccc(O)c12)C(C)C", "note": "[Example 4-HO-DIPT, 4-hydroxy-N,N-diisopropyltryptamine]", "values": [{"measurement": "Intensity of the HTR versus plasma concentration", "setting": "[11]", "value": "proportional to the plasma concentration"}]}]}
